Test results reported in patent US20250270182A1, “Composition Comprising an Antimicrobial Agent and an Alkyl Ketal Ester Compound” (Symrise AG, priority 2022, published 2025).

What was measured:
Test in all cases: Minimum Inhibitory Concentration (MIC) test, growth inhibition in 96 well plates
Type in all cases: cell-based
[1] = system: Aspergillus brasiliensis; conditions: lowest concentration with complete growth inhibition, optical density, substances solved in DMSO; for MIC: Aspergillus brasiliensis, read-out: MIC in ppm Aspergillus brasiliensis
Description: (§1) The Minimum Inhibitory Concentration (MIC) test is a test on growth inhibition. The estimation of MICs is executed in 96 well plates. Through the comparison of bacterial growth with positive and negative controls via optical density (OD), different concentrations of given test substances are evaluated. Bacteria were cultivated under adjusted conditions based on information of the German Collection of Microorganisms and Cell Cultures (DSMZ) and stored in 10% or 50% glycerol prior to use. Afterwards, the following method was applied: Growth medium (according to microorganism) was added to each well of the microplate. Then, the test-substances, solved in DMSO, were added in different concentrations, positive controls (water controls only with medium), solvent controls (DMSO controls only with medium), and negative controls (benchmarks according to organism). Finally, the microorganisms were added in a concentration of 1 to 6×10^6 CFU/ml (CFU=colony forming units). The incubation of the microplates was carried out at appropriate conditions. According to the resulting growth, substance concentrations are labelled either as inhibiting or not and MIC is defined as the lowest concentration where a complete growth inhibition is visible. Experiments at concentration limits (highest concentration labelled as growth and lowest concentration labelled as inhibiting) are performed at least twice. The synergistic activity of NxtSolv 320 (Ethyl propylene glycol acetal levulinate) and Nxt Solv 420 (Ethyl glycerine acetal levulinate) in combination with different antimicrobial compounds was determined by measuring the Minimum Inhibitory Concentrations (MIC) according to the method as described above. […] In special occasions, intermediate dilution steps were performed to further improve the MIC resolution. […] To verify that the tested combinations act synergistically against microorganisms, corresponding experiments were conducted with Staphylococcus aureus, Candida albicans, Aspergillus brasiliensis, Pseudomonas aeruginosa and Escherichia coli. […] In order to calculate the synergy index with MIC values, the Kull equation was used as follows: […]

[2] = system: Candida albicans; conditions: lowest concentration with complete growth inhibition, optical density, substances solved in DMSO; for MIC: Candida albicans, read-out: MIC in ppm Candida albicans
Description: as §1

[3] = system: Escherichia coli; conditions: lowest concentration with complete growth inhibition, optical density, substances solved in DMSO; for MIC: Escherichia coli, read-out: MIC in ppm Escherichia coli
Description: as §1

[4] = system: Pseudomonas aeruginosa; conditions: lowest concentration with complete growth inhibition, optical density, substances solved in DMSO; for MIC: Pseudomonas aeruginosa, read-out: MIC in ppm Pseudomonas aeruginosa
Description: as §1

[5] = system: Staphylococcus aureus; conditions: lowest concentration with complete growth inhibition, optical density, substances solved in DMSO; for MIC: Staphylococcus aureus, read-out: MIC in ppm Staphylococcus aureus
Description: as §1

Structure (SMILES)	MIC in ppm Aspergillus brasiliensis [1]	MIC in ppm Candida albicans [2]	MIC in ppm Escherichia coli [3]	MIC in ppm Pseudomonas aeruginosa [4]	MIC in ppm Staphylococcus aureus [5]	MIC [1] [mg/mL]	MIC [2] [mg/mL]	MIC [3] [mg/mL]	MIC [4] [mg/mL]	MIC [5] [mg/mL]
CCCCC(CC)COCC(O)CO (centres unmarked) [Ethylhexylglycerin]	1,000 ppm	1,000 ppm	2,500 ppm	50,000 ppm	1,000 ppm					
CCCC(O)CO (centres unmarked) [1,2-Pentanediol]						17.5	12.5	15	30	35
CC(=O)c1ccc(O)cc1 [4-Hydroxyacetophenone]	2,500 ppm	6,000 ppm	2,500 ppm	4,000 ppm	5,000 ppm					
CCOC(=O)CCC1(C)OCC(CO)O1 (centres unmarked) [Ethyl glycerine acetal levulinate, ethyl glycerine acetal levulinate]						15	25	25	35	17.5
